According to US10112929B2, “Lactams as inhibitors of rock” (BRISTOL-MYERS SQUIBB COMPANY, priority 2015, dated 2018):
Counter-ions that a name gives are not always drawn.

What follows are compounds tested against ROCK2 (Homo sapiens (Human), UniProt O75116) (assay: biochemical).
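Further: rho kinase enzyme reaction halted with EDTA, phospho- and non-phospho peptide separated for read-out, kinase activity inhibition derived across a dose-response series, DMSO under 2%.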

Sequence of ROCK2 (O75116 whole entry, species assumed): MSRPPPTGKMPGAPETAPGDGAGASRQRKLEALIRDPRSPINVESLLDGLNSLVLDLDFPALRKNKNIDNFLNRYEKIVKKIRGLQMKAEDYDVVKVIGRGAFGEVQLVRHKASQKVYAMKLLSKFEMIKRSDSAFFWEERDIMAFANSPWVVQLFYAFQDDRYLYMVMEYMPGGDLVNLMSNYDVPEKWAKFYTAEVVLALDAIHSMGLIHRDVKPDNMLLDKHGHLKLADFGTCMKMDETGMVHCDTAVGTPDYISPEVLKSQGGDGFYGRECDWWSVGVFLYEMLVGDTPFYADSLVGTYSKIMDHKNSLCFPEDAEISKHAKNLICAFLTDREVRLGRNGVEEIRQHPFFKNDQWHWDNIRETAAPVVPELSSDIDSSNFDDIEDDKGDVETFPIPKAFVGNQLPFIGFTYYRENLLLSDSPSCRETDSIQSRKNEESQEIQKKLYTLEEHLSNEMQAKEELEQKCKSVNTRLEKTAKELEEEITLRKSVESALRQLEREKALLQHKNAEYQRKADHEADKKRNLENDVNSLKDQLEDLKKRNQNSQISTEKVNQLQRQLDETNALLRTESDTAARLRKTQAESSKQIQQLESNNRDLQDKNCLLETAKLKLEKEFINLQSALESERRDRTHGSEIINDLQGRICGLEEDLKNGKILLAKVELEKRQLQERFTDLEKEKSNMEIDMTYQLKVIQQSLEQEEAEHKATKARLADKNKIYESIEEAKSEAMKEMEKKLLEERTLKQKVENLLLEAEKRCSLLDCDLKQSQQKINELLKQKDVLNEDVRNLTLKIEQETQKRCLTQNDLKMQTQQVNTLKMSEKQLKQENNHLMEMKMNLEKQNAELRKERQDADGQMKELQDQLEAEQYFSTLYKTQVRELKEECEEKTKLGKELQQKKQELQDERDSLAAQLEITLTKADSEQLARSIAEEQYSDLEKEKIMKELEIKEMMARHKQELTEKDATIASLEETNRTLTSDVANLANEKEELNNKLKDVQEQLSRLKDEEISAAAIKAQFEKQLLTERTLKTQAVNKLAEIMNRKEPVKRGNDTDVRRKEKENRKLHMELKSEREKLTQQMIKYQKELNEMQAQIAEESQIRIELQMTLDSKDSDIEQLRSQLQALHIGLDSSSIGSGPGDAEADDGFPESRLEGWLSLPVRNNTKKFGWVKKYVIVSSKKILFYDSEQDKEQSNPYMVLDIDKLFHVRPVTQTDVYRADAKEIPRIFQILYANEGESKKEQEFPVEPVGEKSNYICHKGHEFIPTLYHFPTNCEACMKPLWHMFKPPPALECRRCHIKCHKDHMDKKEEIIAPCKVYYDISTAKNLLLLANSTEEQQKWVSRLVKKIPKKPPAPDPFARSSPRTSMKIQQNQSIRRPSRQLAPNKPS

Structure (SMILES) | IC50
COc1cccc(NC2CCN(c3ccc(-c4ccnc(F)c4)c(OC)n3)C2=O)c1 (racemic) [Example 127, 1-(2′-fluoro-2-methoxy-[3,4′-bipyridin]-6-yl)-3-((3-methoxyphenyl)amino)pyrrolidin-2-one] | 0.01 to 0.1 µM
O=C1C(Nc2nc3ccccc3[nH]2)CCN1c1ccc(-c2cn[nH]c2)cc1 (single isomer, unassigned) [Example 55, 3-((1H-benzo[d]imidazol-2-yl)amino)-1-(4-(1H-pyrazol-4-yl)phenyl)pyrrolidin-2-one] | 0.1 to 2.2 µM
COc1cc(NC2CCN(c3ccc(-c4cn[nH]c4)c(C(F)F)c3)C2=O)ccc1F (single isomer, unassigned) [Example 179, 1-(3-(difluoromethyl)-4-(1H-pyrazol-4-yl)phenyl)-3-((4-fluoro-3-methoxyphenyl)amino)pyrrolidin-2-one] | 0.01 to 0.1 µM
COc1cc(N2CCC(Nc3cccc(F)c3OC)C2=O)ccc1-c1cn[nH]c1 (single isomer, unassigned) [Example 150, 3-((3-fluoro-2-methoxyphenyl)amino)-1-(3-methoxy-4-(1H-pyrazol-4-yl)phenyl) pyrrolidin-2-one] | 0.1 to 2.2 µM
COc1cc(NC2CCN(c3ccc(-c4cn[nH]c4)c(C)c3)C2=O)cc(OC)c1 (single isomer, unassigned) [Example 366, 3-((3,5-dimethoxyphenyl)amino)-1-(3-methyl-4-(1H-pyrazol-4-yl)phenyl) pyrrolidin-2-one] | 0.1 to 2.2 µM
COc1nc(N2CCC(N3CCCC(C)(C)C3)C2=O)ccc1-c1cn[nH]c1 (racemic) [Example 278, 3-(3,3-dimethylpiperidin-1-yl)-1-(6-methoxy-5-(1H-pyrazol-4-yl)pyridin-2-yl)pyrrolidin-2-one] | 0.1 to 2.2 µM
CNc1nc(N2CCC(Nc3cc(F)cc(OC)c3)C2=O)ccc1-c1cn[nH]c1 (single isomer, unassigned) [Example 251, 3-((3-fluoro-5-methoxyphenyl)amino)-1-(6-(methylamino)-5-(1H-pyrazol-4-yl)pyridin-2-yl)pyrrolidin-2-one] | 0.01 to 0.1 µM
COc1nc(N2CCC(N3CCCC(F)C3)C2=O)ccc1-c1cn[nH]c1 (racemic) [Example 283, 3-(3-fluoropiperidin-1-yl)-1-(6-methoxy-5-(1H-pyrazol-4-yl)pyridin-2-yl)pyrrolidin-2-one hydrochloride] | 0.01 to 0.1 µM
COc1ccc(F)c(NC2CCN(c3ccc(-c4cn[nH]c4)c(OC)c3)C2=O)c1 (single isomer, unassigned) [Example 147, 3-((2-fluoro-5-methoxyphenyl)amino)-1-(3-methoxy-4-(1H-pyrazol-4-yl)phenyl) pyrrolidin-2-one] | 0.01 to 0.1 µM
O=C1C(Nc2cccc(OCC3CC3)c2)CCN1c1ccc(-c2cn[nH]c2)cc1 (single isomer, unassigned) [Example 233, 1-(4-(1H-pyrazol-4-yl)phenyl)-3-((3-(cyclopropylmethoxy)phenyl)amino) pyrrolidin-2-one] | 0.01 to 0.1 µM
COc1nc(N2CCC(Nc3cc(C)n(C)n3)C2=O)ccc1-c1cn[nH]c1 (racemic) [Example 271, 3-((1,5-dimethyl-1H-pyrazol-3-yl)amino)-1-(6-methoxy-5-(1H-pyrazol-4-yl)pyridin-2-yl)pyrrolidin-2-one] | 0.1 to 2.2 µM
COc1cc(F)cc(NC2CCN(c3ccc(-c4cn[nH]c4)nc3)C2=O)c1 (single isomer, unassigned) [Example 301, 1-(6-(1H-pyrazol-4-yl)pyridin-3-yl)-3-((3-fluoro-5-methoxyphenyl)amino)pyrrolidin-2-one] | 0.01 to 0.1 µM
CC(C)Oc1cccc(NC2CCN(c3ccc(-c4cn[nH]c4)cc3)C2=O)c1 (stereo not drawn) [Example 10, 1-(4-(1H-pyrazol-4-yl)phenyl)-3-((3-isopropoxyphenyl)amino)pyrrolidin-2-one] | 0.01 to 0.1 µM
COc1ccc(Cl)c(NC2CCN(c3ccc(-c4cn[nH]c4)c(OC)n3)C2=O)c1 (racemic) [Example 261, 3-((2-chloro-5-methoxyphenyl)amino)-1-(6-methoxy-5-(1H-pyrazol-4-yl)pyridin-2-yl)pyrrolidin-2-one] | 0.01 to 0.1 µM
COCc1cc(N2CCC(Nc3ccc(F)c(OC)c3)C2=O)ccc1-c1cn[nH]c1 (single isomer, unassigned) [Example 181, 3-((4-fluoro-3-methoxyphenyl)amino)-1-(3-(methoxymethyl)-4-(1H-pyrazol-4-yl)phenyl)pyrrolidin-2-one] | 0.1 to 2.2 µM
COc1cccc(NC2CCN(c3ccc(-c4cn[nH]c4)c(F)c3F)C2=O)c1 (single isomer, unassigned) [Example 305, 1-(2,3-difluoro-4-(1H-pyrazol-4-yl)phenyl)-3-((3-methoxyphenyl)amino) pyrrolidin-2-one] | 0.01 to 0.1 µM
O=C1C(Cc2c(F)cccc2F)CCN1c1ccc(-c2cn[nH]c2)cc1 (stereo not drawn) [Example 94, 1-(4-(1H-pyrazol-4-yl)phenyl)-3-(2,6-difluorobenzyl)pyrrolidin-2-one] | 0.1 to 2.2 µM
N#Cc1cccc(N[C@@H]2CCN(c3ccc(-c4cn[nH]c4)cc3)C2=O)c1 [Example 387, (R)-3-((1-(4-(1H-pyrazol-4-yl)phenyl)-2-oxopyrrolidin-3-yl)amino)benzonitrile] | 0.01 to 0.1 µM
COc1cc(NC2CCN(c3ccc(-c4cn[nH]c4)c(C#N)c3)C2=O)ccc1F (single isomer, unassigned) [Example 379, 5-(3-((4-fluoro-3-methoxyphenyl)amino)-2-oxopyrrolidin-1-yl)-2-(1H-pyrazol-4-yl)benzonitrile] | 0.1 to 2.2 µM
N#Cc1ccnc(NC2CCN(c3ccc(-c4cn[nH]c4)cc3)C2=O)c1 (stereo not drawn) [Example 116, 2-((1-(4-(1H-Pyrazol-4-yl)phenyl)-2-oxopyrrolidin-3-yl)amino)isonicotinonitrile] | 0.01 to 0.1 µM
COc1ccc(NC2CCN(c3ccc(-c4cn[nH]c4)c(Cl)c3)C2=O)cc1F (single isomer, unassigned) [Example 156, 1-(3-chloro-4-(1H-pyrazol-4-yl)phenyl)-3 ((3-fluoro-4-methoxyphenyl)amino) pyrrolidin-2-one] | 0.1 to 2.2 µM
COc1cccc(NC2CCN(c3cc(F)c(-c4cn[nH]c4)c(F)c3)C2=O)c1 (single isomer, unassigned) [Example 311, 1-(3,5-difluoro-4-(1H-pyrazol-4-yl)phenyl)-3-((3-methoxyphenyl)amino)pyrrolidin-2-one] | < 0.01 µM
COc1cccc(C(=O)NC2CCN(c3ccc(-c4cn[nH]c4)cc3)C2=O)c1 (stereo not drawn) [Example 65, N-(1-(4-(1H-Pyrazol-4-yl)phenyl)-2-oxopyrrolidin-3-yl)-3-methoxybenzamide] | 0.1 to 2.2 µM

Now from value to compound:

IC50 | Structure (SMILES)
< 0.01 µM | COc1cc(NC2CCN(c3ccc(-c4cn[nH]c4)c(OC)n3)C2=O)ccc1F (single isomer, unassigned) [Example 207, 3-((4-fluoro-3-methoxyphenyl)amino)-1-(6-methoxy-5-(1H-pyrazol-4-yl)pyridin-2-yl)pyrrolidin-2-one]
< 0.01 µM | COc1c(F)cccc1NC1CCN(c2ccc(-c3cn[nH]c3)c(F)c2)C1=O (single isomer, unassigned) [Example 336, 3-((3-fluoro-2-methoxyphenyl)amino)-1-(3-fluoro-4-(1H-pyrazol-4-yl)phenyl) pyrrolidin-2-one]
< 0.01 µM | COc1nc(N2CCC(Nc3ccc(F)c(OCC4CC4)c3)C2=O)ccc1-c1cn[nH]c1 (single isomer, unassigned) [Example 216, 3-((3-(cyclopropylmethoxy)-4-fluorophenyl)amino)-1-(6-methoxy-5-(1H-pyrazol-4-yl)pyridin-2-yl)pyrrolidin-2-one]
< 0.01 µM | CCOc1cccc(NC2CCN(c3ccc(-c4cn[nH]c4)c(OC)n3)C2=O)c1 (single isomer, unassigned) [Example 218, 3-((3-ethoxyphenyl)amino)-1-(6-methoxy-5-(1H-pyrazol-4-yl)pyridin-2-yl)pyrrolidin-2-one]
< 0.01 µM | O=C1C(Nc2cccc(OCC(F)F)c2)CCN1c1ccc(-c2cn[nH]c2)cc1 (single isomer, unassigned) [Example 237, 1-(4-(1H-pyrazol-4-yl)phenyl)-3-((3-(2,2-difluoroethoxy)phenyl)amino)pyrrolidin-2-one]
< 0.01 µM | COc1cccc(C2CCN(c3ccc(-c4cn[nH]c4)cc3)C2=O)c1 (stereo not drawn) [Example 103, 1-(4-(1H-pyrazol-4-yl)phenyl)-3-(3-methoxyphenyl)pyrrolidin-2-one]
< 0.01 µM | COc1cccc(NC2CCN(c3ccc(-c4cn[nH]c4)cc3)C2=O)c1 (single isomer, unassigned) [Example 28, 1-(4-(1H-pyrazol-4-yl)phenyl)-3-((3-methoxyphenyl)amino)pyrrolidin-2-one]
< 0.01 µM | COc1cccc(NC2CCN(c3ccc(-c4cn[nH]c4)c(F)c3)C2=O)c1 (single isomer, unassigned) [Example 45, 1-(3-fluoro-4-(1H-pyrazol-4-yl)phenyl)-3-((3-methoxyphenyl)amino)pyrrolidin-2-one]
< 0.01 µM | COc1nc(N2CCC(N3CCOc4ccccc43)C2=O)ccc1-c1cn[nH]c1 (single isomer, unassigned) [Example 230, 3-(2H-benzo[b][1,4]oxazin-4(3H)-yl)-1-(6-methoxy-5-(1H-pyrazol-4-yl)pyridin-2-yl)pyrrolidin-2-one]
< 0.01 µM | COc1cc(F)cc(NC2CCN(c3ccc(-c4cn[nH]c4)cn3)C2=O)c1 (single isomer, unassigned) [Example 88, 1-(5-(1H-pyrazol-4-yl)pyridin-2-yl)-3-((3-fluoro-5-methoxyphenyl)amino)pyrrolidin-2-one]
< 0.01 µM | COc1c(F)cccc1NC1CCN(c2ccc(-c3cn[nH]c3)cc2)C1=O (stereo not drawn) [Example 1, 1-(4-(1H-Pyrazol-4-yl)phenyl)-3-((3-fluoro-2-methoxyphenyl)amino)pyrrolidin-2-one]
< 0.01 µM | COc1nc(N2CCC(Nc3ccc4c(c3)OCO4)C2=O)ccc1-c1cn[nH]c1 (racemic) [Example 255, 3-(benzo[d][1,3]dioxol-5-ylamino)-1-(6-methoxy-5-(1H-pyrazol-4-yl)pyridin-2-yl)pyrrolidin-2-one]
< 0.01 µM | COc1nc(N2CCC(Nc3cccc(C#N)c3)C2=O)ccc1-c1cn[nH]c1 (racemic) [Example 257, 3-((1-(6-methoxy-5-(1H-pyrazol-4-yl)pyridin-2-yl)-2-oxopyrrolidin-3-yl)amino)benzonitrile]
